Test results taken from ChEMBL document CHEMBL4382260, “Synthesis and biological evaluation as antiangiogenic agents of ureas derived from 3'-aminocombretastatin A-4” (Eur J Med Chem, 2019).
Activity calls are given as the source filed them. The calls are words filed in the database; no cut-off is given here.

How the values were obtained:
[1] = target: Vascular endothelial growth factor receptor 2 (Homo sapiens) (UniProt P35968); experiment: Inhibition of VEGFR2 internalization in HMEC1 cells at 6 uM after 24 hrs by immunofluorescence assay; format: cell-based
[2] = target: Vascular endothelial growth factor receptor 2 (Homo sapiens) (UniProt P35968); experiment: Inhibition of VEGFR2 internalization in human A549 cells at […] after 24 hrs by immunofluorescence assay; format: cell-based
[3] = target: Vascular endothelial growth factor receptor 2 (Homo sapiens) (UniProt P35968); experiment: Inhibition of VEGFR2 internalization in HMEC1 cells assessed as total VEGFR2 level at 6 uM after 24 hrs by flow cytometry (reference value: 100%); format: cell-based; set-up: scale not given: the % may be the effect or the level left
[4] = target: Vascular endothelial growth factor receptor 2 (Homo sapiens) (UniProt P35968); experiment: Inhibition of VEGFR2 internalization in HMEC1 cells assessed as membrane VEGFR2 level at 6 uM after 24 hrs by flow cytometry (reference value: 100%); format: cell-based; set-up: scale not given: the % may be the effect or the level left
[5] = target: Vascular endothelial growth factor receptor 2 (Homo sapiens) (UniProt P35968); experiment: Inhibition of VEGFR2 internalization in HMEC1 cells assessed as membrane VEGFR2 level at […] after 24 hrs by flow cytometry (reference value: 100%); format: cell-based; set-up: scale not given: the % may be the effect or the level left
[6] = target: Vascular endothelial growth factor receptor 2 (Homo sapiens) (UniProt P35968); experiment: Inhibition of VEGFR2 internalization in HMEC1 cells assessed as total VEGFR2 level at […] after 24 hrs by flow cytometry (reference value: 100%); format: cell-based; set-up: scale not given: the % may be the effect or the level left
Tubulin (Homo sapiens) [7] = target: T1, Tubulin (Homo sapiens) (UniProt P68371+Q9H4B7+P0DPH7+P68366+Q13509+Q71U36+P04350+Q3ZCM7+P07437+P68363+Q9BQE3+Q6PEY2+Q13885+Q9BVA1+Q9BUF5); experiment: Disruption of microtubule network in human A549 cells assessed as compressed and fragmented nuclei at […] after 16 hrs by Hoechst staining based immunofluorescence microscopic method; format: cell-based
[8] = target: Vascular endothelial growth factor receptor 2 (Homo sapiens) (UniProt P35968); experiment: Inhibition of VEGFR2 internalization in HMEC1 cells at 0.6 uM after 24 hrs by immunofluorescence assay; format: cell-based
[9] = target: Vascular endothelial growth factor receptor 2 (Homo sapiens) (UniProt P35968); experiment: Inhibition of VEGFR2 internalization in HMEC1 cells assessed as membrane VEGFR2 level at 0.6 uM after 24 hrs by flow cytometry (reference value: 100%); format: cell-based; set-up: scale not given: the % may be the effect or the level left
[10] = target: Vascular endothelial growth factor receptor 2 (Homo sapiens) (UniProt P35968); experiment: Inhibition of VEGFR2 internalization in HMEC1 cells assessed as total VEGFR2 level at 0.6 uM after 24 hrs by flow cytometry (reference value: 100%); format: cell-based; set-up: scale not given: the % may be the effect or the level left
HL-60 = experiment: Antiproliferative activity against human HL60 cells by MTT assay; format: functional, cell-based
A549 [11] = experiment: Induction of apoptosis in human A549 cells at 50 uM after 20 to 24 hrs by Annexin V-FITC/propidium iodide staining based flow cytometry (reference value: 16%); format: functional
A549 [12] = experiment: Induction of apoptosis in human A549 cells at 100 uM after 20 to 24 hrs by Annexin V-FITC/propidium iodide staining based flow cytometry (reference value: 16%); format: functional
HMEC-1 = experiment: Antiangiogenic activity against HMEC1 cells after 20 hrs by tube formation assay; conditions: Homo sapiens, HMEC-1, 20 h
[13] = target: Vascular endothelial growth factor receptor 2 (Homo sapiens) (UniProt P35968); experiment: Inhibition of VEGFR2 internalization in HMEC1 cells assessed as total VEGFR2 level at 15 uM after 24 hrs by flow cytometry (reference value: 100%); format: cell-based; set-up: scale not given: the % may be the effect or the level left
[14] = target: Vascular endothelial growth factor receptor 2 (Homo sapiens) (UniProt P35968); experiment: Inhibition of VEGFR2 internalization in HMEC1 cells at 15 uM after 24 hrs by immunofluorescence assay; format: cell-based
[15] = target: Vascular endothelial growth factor receptor 2 (Homo sapiens) (UniProt P35968); experiment: Inhibition of VEGFR2 internalization in human A549 cells at 44 uM after 24 hrs by immunofluorescence assay; format: cell-based
[16] = target: Vascular endothelial growth factor receptor 2 (Homo sapiens) (UniProt P35968); experiment: Inhibition of VEGFR2 internalization in HMEC1 cells assessed as membrane VEGFR2 level at 15 uM after 24 hrs by flow cytometry (reference value: 100%); format: cell-based; set-up: scale not given: the % may be the effect or the level left
[17] = target: Vascular endothelial growth factor receptor 2 (Homo sapiens) (UniProt P35968); experiment: Inhibition of VEGFR2 internalization in HMEC1 cells assessed as total VEGFR2 level at 120 uM after 24 hrs by flow cytometry (reference value: 100%); format: cell-based; set-up: scale not given: the % may be the effect or the level left
[18] = target: Vascular endothelial growth factor receptor 2 (Homo sapiens) (UniProt P35968); experiment: Inhibition of VEGFR2 internalization in HMEC1 cells at 120 uM after 24 hrs by immunofluorescence assay; format: cell-based
[19] = target: Vascular endothelial growth factor receptor 2 (Homo sapiens) (UniProt P35968); experiment: Inhibition of VEGFR2 internalization in HMEC1 cells assessed as membrane VEGFR2 level at 120 uM after 24 hrs by flow cytometry (reference value: 100%); format: cell-based; set-up: scale not given: the % may be the effect or the level left
[20] = target: Vascular endothelial growth factor receptor 2 (Homo sapiens) (UniProt P35968); experiment: Inhibition of VEGFR2 internalization in human A549 cells at 48 uM after 24 hrs by immunofluorescence assay; format: cell-based
A549 [21] = experiment: Cell cycle arrest in human A549 cells assessed as accumulation at G0/G1 phase at 22 uM after 24 hrs by propidium iodide staining based flow cytometry (reference value: 60 +/- 1%); format: functional
A549 [22] = experiment: Cell cycle arrest in human A549 cells assessed as accumulation at G2/M phase at 22 uM after 24 hrs by propidium iodide staining based flow cytometry (reference value: 10 +/- 0.8%); format: functional
A549 [23] = experiment: Cell cycle arrest in human A549 cells assessed as accumulation at subG0 phase at 22 uM after 24 hrs by propidium iodide staining based flow cytometry (reference value: 2 +/- 0.8%); format: functional
A549 [24] = experiment: Cell cycle arrest in human A549 cells assessed as accumulation at S phase at 22 uM after 24 hrs by propidium iodide staining based flow cytometry (reference value: 28 +/- 0.6%); format: functional
Tubulin (Homo sapiens) [25] = target: T1, Tubulin (Homo sapiens); experiment: Disruption of microtubule network in human A549 cells assessed as compressed and fragmented nuclei at 28 uM after 16 hrs by Hoechst staining based immunofluorescence microscopic method; format: cell-based
[26] = target: Vascular endothelial growth factor receptor 2 (Homo sapiens) (UniProt P35968); experiment: Inhibition of VEGFR2 internalization in HMEC1 cells assessed as total VEGFR2 level at 12 uM after 24 hrs by flow cytometry (reference value: 100%); format: cell-based; set-up: scale not given: the % may be the effect or the level left
[27] = target: Vascular endothelial growth factor receptor 2 (Homo sapiens) (UniProt P35968); experiment: Inhibition of VEGFR2 internalization in HMEC1 cells assessed as membrane VEGFR2 level at 12 uM after 24 hrs by flow cytometry (reference value: 100%); format: cell-based; set-up: scale not given: the % may be the effect or the level left
[28] = target: Vascular endothelial growth factor receptor 2 (Homo sapiens) (UniProt P35968); experiment: Inhibition of VEGFR2 internalization in HMEC1 cells at 12 uM after 24 hrs by immunofluorescence assay; format: cell-based
[29] = target: Vascular endothelial growth factor receptor 2 (Homo sapiens) (UniProt P35968); experiment: Inhibition of VEGFR2 internalization in human A549 cells at 28 uM after 24 hrs by immunofluorescence assay; format: cell-based
A549 [30] = experiment: Cell cycle arrest in human A549 cells assessed as accumulation at G0/G1 phase at […] after 24 hrs by propidium iodide staining based flow cytometry (reference value: 60 +/- 1%); format: functional
A549 [31] = experiment: Cell cycle arrest in human A549 cells assessed as accumulation at G2/M phase at […] after 24 hrs by propidium iodide staining based flow cytometry (reference value: 10 +/- 0.8%); format: functional
A549 [32] = experiment: Cell cycle arrest in human A549 cells assessed as accumulation at S phase at […] after 24 hrs by propidium iodide staining based flow cytometry (reference value: 28 +/- 0.6%); format: functional
A549 [33] = experiment: Cell cycle arrest in human A549 cells assessed as accumulation at subG0 phase at […] after 24 hrs by propidium iodide staining based flow cytometry (reference value: 2 +/- 0.8%); format: functional
[34] = target: Vascular endothelial growth factor receptor 2 (Homo sapiens) (UniProt P35968); experiment: Inhibition of VEGFR2 internalization in HMEC1 cells at 8 uM after 24 hrs by immunofluorescence assay; format: cell-based
[35] = target: Vascular endothelial growth factor receptor 2 (Homo sapiens) (UniProt P35968); experiment: Inhibition of VEGFR2 internalization in human A549 cells at 18 uM after 24 hrs by immunofluorescence assay; format: cell-based
[36] = target: Vascular endothelial growth factor receptor 2 (Homo sapiens) (UniProt P35968); experiment: Inhibition of VEGFR2 internalization in HMEC1 cells assessed as membrane VEGFR2 level at 8 uM after 24 hrs by flow cytometry (reference value: 100%); format: cell-based; set-up: scale not given: the % may be the effect or the level left
[37] = target: Vascular endothelial growth factor receptor 2 (Homo sapiens) (UniProt P35968); experiment: Inhibition of VEGFR2 internalization in HMEC1 cells assessed as total VEGFR2 level at 8 uM after 24 hrs by flow cytometry (reference value: 100%); format: cell-based; set-up: scale not given: the % may be the effect or the level left
Tubulin (Homo sapiens) [38] = target: T1, Tubulin (Homo sapiens); experiment: Disruption of microtubule network in human A549 cells assessed as compressed and fragmented nuclei at 18 uM after 16 hrs by Hoechst staining based immunofluorescence microscopic method; format: cell-based

Vascular endothelial growth factor receptor 2 (Homo sapiens), sequence (P35968 whole entry, the tested form may be a part): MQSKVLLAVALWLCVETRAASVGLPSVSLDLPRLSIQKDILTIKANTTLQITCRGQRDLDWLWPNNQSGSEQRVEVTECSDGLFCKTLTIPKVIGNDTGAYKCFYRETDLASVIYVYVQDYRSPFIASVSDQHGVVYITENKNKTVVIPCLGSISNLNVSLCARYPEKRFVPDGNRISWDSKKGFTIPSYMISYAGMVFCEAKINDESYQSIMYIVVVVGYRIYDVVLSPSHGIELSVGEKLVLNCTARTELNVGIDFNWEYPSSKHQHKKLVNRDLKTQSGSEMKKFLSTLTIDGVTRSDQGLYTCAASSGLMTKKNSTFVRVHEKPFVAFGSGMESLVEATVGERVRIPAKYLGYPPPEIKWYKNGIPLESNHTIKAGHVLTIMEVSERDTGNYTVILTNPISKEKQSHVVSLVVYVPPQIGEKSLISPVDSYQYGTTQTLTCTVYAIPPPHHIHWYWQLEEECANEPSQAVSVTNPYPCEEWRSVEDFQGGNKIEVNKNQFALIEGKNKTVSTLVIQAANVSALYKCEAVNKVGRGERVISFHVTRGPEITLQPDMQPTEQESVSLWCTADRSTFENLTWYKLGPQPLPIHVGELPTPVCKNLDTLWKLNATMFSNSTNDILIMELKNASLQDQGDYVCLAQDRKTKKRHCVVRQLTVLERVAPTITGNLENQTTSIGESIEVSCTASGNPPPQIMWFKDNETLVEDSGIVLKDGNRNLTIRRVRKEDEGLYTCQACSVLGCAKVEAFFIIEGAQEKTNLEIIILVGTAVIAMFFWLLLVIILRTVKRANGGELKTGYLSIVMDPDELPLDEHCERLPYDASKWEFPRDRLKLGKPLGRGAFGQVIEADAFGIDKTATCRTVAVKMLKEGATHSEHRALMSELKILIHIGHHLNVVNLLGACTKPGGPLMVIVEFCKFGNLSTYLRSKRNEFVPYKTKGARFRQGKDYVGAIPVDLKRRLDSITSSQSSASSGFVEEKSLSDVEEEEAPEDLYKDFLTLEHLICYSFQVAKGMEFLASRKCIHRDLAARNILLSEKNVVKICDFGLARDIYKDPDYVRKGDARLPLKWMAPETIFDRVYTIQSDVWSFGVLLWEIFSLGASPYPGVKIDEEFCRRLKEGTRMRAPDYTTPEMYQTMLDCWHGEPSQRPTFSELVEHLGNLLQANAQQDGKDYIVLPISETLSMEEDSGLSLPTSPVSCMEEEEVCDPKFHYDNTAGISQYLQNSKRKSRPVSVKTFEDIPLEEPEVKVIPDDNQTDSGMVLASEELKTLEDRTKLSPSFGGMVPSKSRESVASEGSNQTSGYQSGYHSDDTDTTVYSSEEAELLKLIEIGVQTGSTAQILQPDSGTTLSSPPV

## COc1ccc(/C=C\c2cc(OC)c(OC)c(OC)c2)cc1NC(=O)Nc1ccccc1Cl
[1]
  inhibition: Active
[2]
  inhibition: Active
[3]
  Activity: 46%
[4]
  Activity: 43%

## COc1ccc(/C=C\c2cc(OC)c(OC)c(OC)c2)cc1NC(=O)Nc1cccc(Cl)c1C
[5]
  Activity: 71%
[6]
  Activity: 97%
Tubulin (Homo sapiens) [7]
  Activity: Active

## COc1ccc(/C=C\c2cc(OC)c(OC)c(OC)c2)cc1NC(=O)Nc1ccccc1Br
[2]
  inhibition: Active
[8]
  inhibition: Active
[9]
  Activity: 48%
[10]
  Activity: 80%
Tubulin (Homo sapiens) [7]
  Activity: Active

## COc1ccc(/C=C\c2cc(OC)c(OC)c(OC)c2)cc1NC(=O)Nc1cccc(Br)c1
Tubulin (Homo sapiens) [7]
  Activity: Active

## CNC(=O)c1cc(Oc2ccc(NC(=O)Nc3ccc(Cl)c(C(F)(F)F)c3)cc2)ccn1 [SORAFENIB]
HL-60
  IC50: 5 µM
A549 [11]
  Activity: 30%
A549 [12]
  Activity: 38%
HMEC-1
  IC50: 34 µM

## COc1ccc(/C=C\c2cc(OC)c(OC)c(OC)c2)cc1NC(=O)Nc1ccc(Cl)c(C)c1
[13]
  Activity: 100%
[14]
  inhibition: Active
[15]
  inhibition: Active
[16]
  Activity: 80%

## COc1ccc(/C=C\c2cc(OC)c(OC)c(OC)c2)cc1NC(=O)Nc1cc(C)cc(C)c1
[17]
  Activity: 15%
[18]
  inhibition: Active
[19]
  Activity: 62%
[20]
  inhibition: Active

## CCN(CC)CCNC(=O)c1c(C)[nH]c(/C=C2\C(=O)Nc3ccc(F)cc32)c1C [SUNITINIB]
A549 [21]
  Activity: 47%
A549 [22]
  Activity: 16%
A549 [23]
  Activity: 2.4%
HL-60
  IC50: 7 µM
A549 [11]
  Activity: 38%
A549 [24]
  Activity: 35%
A549 [12]
  Activity: 45%
HMEC-1
  IC50: 7 µM

## COc1ccc(/C=C\c2cc(OC)c(OC)c(OC)c2)cc1NC(=O)Nc1ccc(C)c(C)c1
Tubulin (Homo sapiens) [25]
  Activity: Active
[26]
  Activity: 148%
[27]
  Activity: 61%
[28]
  inhibition: Active
[29]
  inhibition: Active

## COc1ccc(/C=C\c2cc(OC)c(OC)c(OC)c2)cc1N
A549 [30]
  Activity: 21%
A549 [31]
  Activity: 41%
A549 [11]
  Activity: 32%
A549 [12]
  Activity: 52%
A549 [32]
  Activity: 24%
A549 [33]
  Activity: 14%

## COc1ccc(/C=C\c2cc(OC)c(OC)c(OC)c2)cc1NC(=O)Nc1cccc(C)c1
[34]
  inhibition: Active
[35]
  inhibition: Active
[36]
  Activity: 71%
[37]
  Activity: 87%
Tubulin (Homo sapiens) [38]
  Activity: Active
